Data on two molecules can be found in patent US20220133894A1, “BISPHOSPHONATE-LINKED COMPOUNDS” (OREGON HEALTH & SCIENCE UNIVERSITY, priority 2019, published 2022).

For assay [1], the system named is prostate specific antigen (PSA). The assay can be described thus: PSA expression by qRT/PCR in VCaP cells. The class given is cell-based, human. The note with it: VCaP cells in androgen depleted media. The procedure: (§1) Cells were cultured in media depleted of androgen and after a washout of 72 hrs were treated with the synthetic androgen R1881, KBU2046, enzalutamide and/or vehicle (control), and resultant effects upon induction of the androgen-responsive gene, prostate specific antigen (PSA) were measured (FIG. 3A).
(§2) LNCaP or VCaP cells cultured in hormone free media were treated with R1881 (R), KBU2046 (46) and/or enzalutamide (E). (FIGS. 3A and 3B) Effects on AR-responsive gene expression. PSA expression was measured by qRT/PCR, normalized to GAPDH and expressed as a percent of control cells (N=3 replicates); * denotes P<0.05 for groups separated by bar. (FIGS. 3C and 3D) Effects on cell growth. Three day growth assays were performed. Data are the number of viable cells, expressed as % of control (N=3 replicates); * P<0.05 compared to control. (E) Effects on AR activation. Western blots of nuclear (N) and cytoplasmic (C) preparations of cell extracts were probed for AR, laminin 1 or α-tubulin. (FIGS. 3F and 3G) Effects on tumor outgrowth after androgen deprivation therapy. LNCaP/AR-luc cells were implanted subcutaneously (N=6 mice/cohort) or orthotopic (N=15 mice/cohort were implanted; N=5 yielded tumors) into castrate mice, treatment with KBU2046 began as noted, and weekly IVIS imaging performed. Data are tumor size, expressed as luminescence intensity. All data are expressed as mean±SEM.
(§3) RNA was isolated and qRT/PCR performed as previously described by us (Ding et al., J Biomol Tech 18, 321-330 (2007)). Resultant data were analyzed using the 2^−ΔΔt method (Livak et al., Methods 25, 402-408 (2001)), normalized to GAPDH, for the following primer/probe sets (ABI) PSA (Hs02576345_m1) and GAPDH (Hs99999905_m1). Assays were performed in triplicate, and were repeated.

For a further assay, the system named is VCaP cells. The assay is described as follows: SRB growth inhibition assay, VCaP. The class given is cell-based, human. The note with it: 10 μM enzalutamide, 10 μM KBU2046 added to control or enzalutamide treated cells, 72 hours. The procedure: as §2
(§4) Enzalutamide mediated growth inhibition was assessed using Sulforhodamine B (SRB) growth inhibition assays, were performed as previously described (49). In brief, LNCaP and VCaP cells were pre-incubated in charcoal-striped medium for 48 hours and then seeded (1.9×10^4) in 96-well plates. […]

The next assay relates to LNCaP cells. The assay is described as follows: SRB growth inhibition assay, LNCaP. Format: cell-based, human. Conditions: 10 μM enzalutamide, 10 μM KBU2046 added to control or enzalutamide treated cells, 72 hours. The procedure:
as §2, §4

Assay [2] concerns prostate specific antigen (PSA). The assay can be described thus: PSA expression by qRT/PCR in LNCaP cells. The class given is cell-based, human. The note with it: LNCaP cells in androgen depleted media. As to the method:
as §1, §2, §3

The next assay concerns PC3-M cells. The assay is described as follows: PCa subcutaneous implantation, tumor growth. Format: in vivo. Conditions: oral 80 mg KBU2046/kg, weekly intraperitoneal docetaxel 20 mg/kg, KBU2046 added to control or docetaxel treated mice. The procedure:
FIG. 1A depicts the effect of chemotherapy on the growth of androgen independent PC3-M PCa cells in vitro. Data are the mean±SEM (N=3 replicates) of cell viability in a 3 day growth assay in the presence of 10 μM KBU2046 or vehicle (control) treated with docetaxel or cabazitaxel. FIG. 1B depicts the effect of chemotherapy on the growth of androgen independent PCa cells in vivo. Mice received subcutaneous implants of PC3-M cells, were monitored until tumors were detectable (250 mm^3), and then treated daily with oral 80 mg KBU2046/kg (46) or vehicle (CO) and with weekly intraperitoneal docetaxel (doc) at 0 or 20 mg/kg, beginning on day 1, and tumor size measured. Data are mean±SEM, with N=20 mice per cohort.
PCa subcutaneous implantation: 2.5×10^5 PC3-M cells in sterile PBS were implanted into the right flank of 6-7 week old male athymic nude mice (Charles River) and tumor growth measurements were performed twice a week as previously described by us (Gordon et al., Chemotherapy-induced monoamine oxidase expression in prostate carcinoma functions as a cytoprotective resistance enzyme and associates with clinical outcomes. PLoS One 9, e104271 (2014)). […] Tumor measurements were obtained in a blinded fashion, and tumor volumes were calculated with the following formula: length×(width)^2×0.5.

The next assay deals with PC3-M-luc cells. The assay is described as follows: PCa orthotopic implantation, primary tumor growth and lung metastasis. Format: in vivo, mice. The procedure:
To assess the efficacy of a spectrum of docetaxel concentrations, mice received orthotopic implants of PC3-M-luc cells, were treated with 0, 10 or 20 mg/kg docetaxel, and tumor growth monitored with weekly IVIS imaging. […] Subsequently, mice with orthotopic implants of PC3-M-luc cells were treated with docetaxel, KBU2046, docetaxel+KBU2046 or vehicle, as denoted, and effects on primary tumor growth and lung metastasis quantified (FIGS. 2A, 2B, and 2C).
Cohorts of N=10 mice bearing orthotopic implants of PC3-M-luc cells were treated daily with 150 mg/kg KUB2046 (46), intraperitoneal docetaxel 7.5 mg/kg weekly (doc), the combination (doc+46), or with oral and intraperitoneal vehicle (CO). KBU2046 treatment began 3 days before implantation and docetaxel began 1 week after. (A) Lung metastasis measured by qPCR for human Alu sequences, expressed as percent control (B) Weekly IVIS imaging of tumor. (C) Tumor weight. * denotes P<0.05 for differences between cohorts denoted by bars. All data are mean±SEM.
PCa orthotopic implantation: Orthotopic implantation of 2.5×10^5 PC3M-luc into 7-8 week old male athymic mice was performed as previously described by us (5, 52 Xu et al., above; and Pavese et al., J Vis Exp, e50873 (2013)). Daily oral gavage treatment with 150 mg/kg KBU2046 or was initiated 3 days prior to implantation and continued throughout the duration of the study. Weekly IP injections with 7.5 mg/kg docetaxel or control were administered beginning one week post implantation. Primary tumor out growth was monitored via weekly IVIS imaging. At the completion of the study the primary tumor was resected and weighed and lungs were resected and snap frozen. To determine the human PCa metastatic burden in each mouse lung, the snap frozen tissue was pulverized, DNA isolated and Alu-sequencing performed as previously described (19). […] (SEQ ID NO: 3). The 144RH probe was labeled with a 5′ fluorescent reporter (6-FAM) and a 3′ fluorescent quencher (Black Hole Quencher). The relative content of human DNA was calculated with using the comparative CT method, CT (sample)-CT(negative control). All samples were run in triplicate and were repeated.

For the molecule `CNC(=O)c1ccc(N2C(=S)N(c3ccc(C#N)c(C(F)(F)F)c3)C(=O)C2(C)C)cc1F` [enzalutamide], the PSA expression entry in assay [1] and in assay [2] was “decreased” throughout. Also, the cell growth entry with VCaP cells and with LNCaP cells was “significantly inhibited” throughout.
Consider `CC(=O)O[C@@]12CO[C@@H]1C[C@H](O)[C@@]1(C)C(=O)[C@H](O)C3=C(C)[C@@H](OC(=O)[C@H](O)[C@@H](NC(=O)OC(C)(C)C)c4ccccc4)C[C@@](O)([C@@H](OC(=O)c4ccccc4)[C@H]21)C3(C)C` [docetaxel], for which, in the assay on PC3-M cells, the tumor growth result is “significantly inhibited”. The “prostate tumor growth kinetics by weekly IVIS imaging” value in the assay on PC3-M-luc cells (cohorts receiving docetaxel 7.5 mg/kg weekly vs not) is “slower growth”. Besides, the “tumor growth by weekly IVIS imaging” value in the assay on PC3-M-luc cells (orthotopic PC3-M-luc, 0, 10 or 20 mg/kg docetaxel, dose-dependent) was “significantly inhibited”. For the same molecule, the “decrease of tumor weight compared to control” value in the assay on PC3-M-luc cells (orthotopic PC3-M-luc, 150 mg/kg KBU2046 daily, docetaxel 7.5 mg/kg weekly) is on record as 49%. Further, the “decrease of lung metastasis compared to control (human Alu qPCR)” value with PC3-M-luc cells (orthotopic PC3-M-luc, 150 mg/kg KBU2046 daily, docetaxel 7.5 mg/kg weekly intraperitoneal) is on record as 23%.
